Measurements published in ChEMBL document CHEMBL4507278 (2021).

Tests used:
[1] = target: Ribosomal protein S6 kinase alpha-2 (Homo sapiens) (UniProt Q15349); details: Compound concentration 1000.0 nM
[2] = target: Cyclin-dependent kinase 15 (Homo sapiens) (UniProt Q96Q40); details: Compound concentration 1000.0 nM
[3] = target: G protein-coupled receptor kinase 4 (Homo sapiens) (UniProt P32298); details: Compound concentration 1000.0 nM
[4] = target: Glucocorticoid receptor (Homo sapiens) (UniProt P04150); assay: GLUCOCORTICO Eurofins-Panlabs selectivity data (BI); details: Compound concentration 10.0 uM
[5] = target: Serine/threonine-protein kinase PAK 4 (Homo sapiens) (UniProt O96013); details: Compound concentration 1000.0 nM
[6] = target: Adenosine receptor A1 (Homo sapiens) (UniProt P30542); assay: A1/HU Eurofins-Panlabs selectivity data (BI); details: Compound concentration 10.0 uM
[7] = target: Serine/threonine-protein kinase Sgk3 (Homo sapiens) (UniProt Q96BR1); details: Compound concentration 1000.0 nM
[8] = target: Serine/threonine-protein kinase PAK 6 (Homo sapiens) (UniProt Q9NQU5); details: Compound concentration 1000.0 nM
[9] = target: Adenosine receptor A2a (Homo sapiens) (UniProt P29274); assay: A2A/HU Eurofins-Panlabs selectivity data (BI); details: Compound concentration 10.0 uM
[10] = target: Macrophage-stimulating protein receptor (Homo sapiens) (UniProt Q04912); details: Compound concentration 1000.0 nM
[11] = target: Tyrosine-protein kinase JAK1 (Homo sapiens) (UniProt P23458); details: Compound concentration 1000.0 nM
[12] = target: Dual specificity mitogen-activated protein kinase kinase 1 (Homo sapiens) (UniProt Q02750); details: Compound concentration 1000.0 nM
[13] = target: Cyclin-dependent kinase 2 homolog (Plasmodium falciparum (isolate 3D7)) (UniProt P61075); details: Compound concentration 1000.0 nM
[14] = target: Protein kinase C eta type (Homo sapiens) (UniProt P24723); details: Compound concentration 1000.0 nM
[15] = target: Dual specificity protein kinase TTK (Homo sapiens) (UniProt P33981); details: Compound concentration 1000.0 nM
[16] = target: Ankyrin repeat and protein kinase domain-containing protein 1 (Homo sapiens) (UniProt Q8NFD2); details: Compound concentration 1000.0 nM
[17] = target: D(3) dopamine receptor (Homo sapiens) (UniProt P35462); assay: D3/HU Eurofins-Panlabs selectivity data (BI); details: Compound concentration 10.0 uM
[18] = target: Activated CDC42 kinase 1 (Homo sapiens) (UniProt Q07912); details: Compound concentration 1000.0 nM
[19] = target: Muscarinic acetylcholine receptor M2 (Homo sapiens) (UniProt P08172); assay: M2/HU Eurofins-Panlabs selectivity data (BI); details: Compound concentration 10.0 uM
[20] = target: Tyrosine-protein kinase CSK (Homo sapiens) (UniProt P41240); details: Compound concentration 1000.0 nM
[21] = target: Proto-oncogene tyrosine-protein kinase Src (Homo sapiens) (UniProt P12931); details: Compound concentration 1000.0 nM
[22] = target: Angiopoietin-1 receptor (Homo sapiens) (UniProt Q02763); details: Compound concentration 1000.0 nM
[23] = target: 3',5'-cyclic-AMP phosphodiesterase 4A (Rattus norvegicus) (UniProt P54748); assay: ROLIPRAM/R Eurofins-Panlabs selectivity data (BI); details: Compound concentration 10.0 uM
[24] = target: Hepatocyte growth factor receptor (Homo sapiens) (UniProt P08581); details: Compound concentration 1000.0 nM
[25] = target: Receptor-interacting serine/threonine-protein kinase 2 (Homo sapiens) (UniProt O43353); details: Compound concentration 1000.0 nM
[26] = test system: eIF-2-alpha kinase GCN2 (Homo sapiens), Q9P2K8 [S808G]; details: Compound concentration 1000.0 nM
[27] = target: Phosphatidylinositol 4-phosphate 5-kinase type-1 alpha (Homo sapiens) (UniProt Q99755); details: Compound concentration 1000.0 nM
[28] = target: Dual specificity mitogen-activated protein kinase kinase 3 (Homo sapiens) (UniProt P46734); details: Compound concentration 1000.0 nM
[29] = target: Citron Rho-interacting kinase (Homo sapiens) (UniProt O14578); details: Compound concentration 1000.0 nM
[30] = target: Sodium-dependent noradrenaline transporter (Homo sapiens) (UniProt P23975); assay: NETRANS/H Eurofins-Panlabs selectivity data (BI); details: Compound concentration 10.0 uM
[31] = test system: Tyrosine-protein kinase ABL1 (Homo sapiens), P00519 [Q252H]; details: Compound concentration 1000.0 nM
[32] = target: Serine/threonine-protein kinase 32A (Homo sapiens) (UniProt Q8WU08); details: Compound concentration 1000.0 nM
[33] = target: AP2-associated protein kinase 1 (Homo sapiens) (UniProt Q2M2I8); details: Compound concentration 1000.0 nM
[34] = test system: Epidermal growth factor receptor (Homo sapiens), P00533 [L858R,T790M]; details: Compound concentration 1000.0 nM
[35] = target: Tyrosine-protein kinase JAK3 (Homo sapiens) (UniProt P52333); details: Compound concentration 1000.0 nM
[36] = target: Inhibitor of nuclear factor kappa-B kinase subunit alpha (Homo sapiens) (UniProt O15111); details: Compound concentration 1000.0 nM
[37] = target: Ephrin type-A receptor 2 (Homo sapiens) (UniProt P29317); details: Compound concentration 1000.0 nM
[38] = target: Serine/threonine-protein kinase VRK2 (Homo sapiens) (UniProt Q86Y07); details: Compound concentration 1000.0 nM
[39] = target: Serine/threonine-protein kinase RIO2 (Homo sapiens) (UniProt Q9BVS4); details: Compound concentration 1000.0 nM
[40] = target: Beta-1 adrenergic receptor (Homo sapiens, UniProt P08588); assay: BETA1/HU Eurofins-Panlabs selectivity data (BI); details: Compound concentration 10.0 uM
[41] = target: Alpha-1A adrenergic receptor (Rattus norvegicus) (UniProt P43140); assay: ALPHA1A/R Eurofins-Panlabs selectivity data (BI); details: Compound concentration 10.0 uM
[42] = test system: Receptor-type tyrosine-protein kinase FLT3 (Homo sapiens), P36888 [UNDEFINED MUTATION]; details: Compound concentration 1000.0 nM
[43] = target: Receptor-type tyrosine-protein kinase FLT3 (Homo sapiens) (UniProt P36888); details: Compound concentration 1000.0 nM
[44] = target: Mitogen-activated protein kinase kinase kinase 3 (Homo sapiens) (UniProt Q99759); details: Compound concentration 1000.0 nM
[45] = target: Serine/threonine-protein kinase/endoribonuclease IRE1 (Homo sapiens) (UniProt O75460); details: Compound concentration 1000.0 nM

Measured: residual activity

Chain of Dual specificity mitogen-activated protein kinase kinase 1 (Homo sapiens) (Q02750 whole entry): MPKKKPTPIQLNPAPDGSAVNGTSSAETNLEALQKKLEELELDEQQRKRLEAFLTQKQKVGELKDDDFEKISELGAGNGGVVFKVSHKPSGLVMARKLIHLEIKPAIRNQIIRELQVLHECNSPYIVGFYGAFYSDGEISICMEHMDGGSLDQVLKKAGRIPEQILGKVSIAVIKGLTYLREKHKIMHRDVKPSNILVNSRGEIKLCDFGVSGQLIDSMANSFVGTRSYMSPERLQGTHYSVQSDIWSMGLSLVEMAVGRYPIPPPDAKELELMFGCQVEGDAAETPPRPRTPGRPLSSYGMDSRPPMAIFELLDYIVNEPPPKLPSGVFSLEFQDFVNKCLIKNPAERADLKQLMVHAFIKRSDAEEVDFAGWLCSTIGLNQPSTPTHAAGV
Chain of Citron Rho-interacting kinase (Homo sapiens) (O14578 whole entry): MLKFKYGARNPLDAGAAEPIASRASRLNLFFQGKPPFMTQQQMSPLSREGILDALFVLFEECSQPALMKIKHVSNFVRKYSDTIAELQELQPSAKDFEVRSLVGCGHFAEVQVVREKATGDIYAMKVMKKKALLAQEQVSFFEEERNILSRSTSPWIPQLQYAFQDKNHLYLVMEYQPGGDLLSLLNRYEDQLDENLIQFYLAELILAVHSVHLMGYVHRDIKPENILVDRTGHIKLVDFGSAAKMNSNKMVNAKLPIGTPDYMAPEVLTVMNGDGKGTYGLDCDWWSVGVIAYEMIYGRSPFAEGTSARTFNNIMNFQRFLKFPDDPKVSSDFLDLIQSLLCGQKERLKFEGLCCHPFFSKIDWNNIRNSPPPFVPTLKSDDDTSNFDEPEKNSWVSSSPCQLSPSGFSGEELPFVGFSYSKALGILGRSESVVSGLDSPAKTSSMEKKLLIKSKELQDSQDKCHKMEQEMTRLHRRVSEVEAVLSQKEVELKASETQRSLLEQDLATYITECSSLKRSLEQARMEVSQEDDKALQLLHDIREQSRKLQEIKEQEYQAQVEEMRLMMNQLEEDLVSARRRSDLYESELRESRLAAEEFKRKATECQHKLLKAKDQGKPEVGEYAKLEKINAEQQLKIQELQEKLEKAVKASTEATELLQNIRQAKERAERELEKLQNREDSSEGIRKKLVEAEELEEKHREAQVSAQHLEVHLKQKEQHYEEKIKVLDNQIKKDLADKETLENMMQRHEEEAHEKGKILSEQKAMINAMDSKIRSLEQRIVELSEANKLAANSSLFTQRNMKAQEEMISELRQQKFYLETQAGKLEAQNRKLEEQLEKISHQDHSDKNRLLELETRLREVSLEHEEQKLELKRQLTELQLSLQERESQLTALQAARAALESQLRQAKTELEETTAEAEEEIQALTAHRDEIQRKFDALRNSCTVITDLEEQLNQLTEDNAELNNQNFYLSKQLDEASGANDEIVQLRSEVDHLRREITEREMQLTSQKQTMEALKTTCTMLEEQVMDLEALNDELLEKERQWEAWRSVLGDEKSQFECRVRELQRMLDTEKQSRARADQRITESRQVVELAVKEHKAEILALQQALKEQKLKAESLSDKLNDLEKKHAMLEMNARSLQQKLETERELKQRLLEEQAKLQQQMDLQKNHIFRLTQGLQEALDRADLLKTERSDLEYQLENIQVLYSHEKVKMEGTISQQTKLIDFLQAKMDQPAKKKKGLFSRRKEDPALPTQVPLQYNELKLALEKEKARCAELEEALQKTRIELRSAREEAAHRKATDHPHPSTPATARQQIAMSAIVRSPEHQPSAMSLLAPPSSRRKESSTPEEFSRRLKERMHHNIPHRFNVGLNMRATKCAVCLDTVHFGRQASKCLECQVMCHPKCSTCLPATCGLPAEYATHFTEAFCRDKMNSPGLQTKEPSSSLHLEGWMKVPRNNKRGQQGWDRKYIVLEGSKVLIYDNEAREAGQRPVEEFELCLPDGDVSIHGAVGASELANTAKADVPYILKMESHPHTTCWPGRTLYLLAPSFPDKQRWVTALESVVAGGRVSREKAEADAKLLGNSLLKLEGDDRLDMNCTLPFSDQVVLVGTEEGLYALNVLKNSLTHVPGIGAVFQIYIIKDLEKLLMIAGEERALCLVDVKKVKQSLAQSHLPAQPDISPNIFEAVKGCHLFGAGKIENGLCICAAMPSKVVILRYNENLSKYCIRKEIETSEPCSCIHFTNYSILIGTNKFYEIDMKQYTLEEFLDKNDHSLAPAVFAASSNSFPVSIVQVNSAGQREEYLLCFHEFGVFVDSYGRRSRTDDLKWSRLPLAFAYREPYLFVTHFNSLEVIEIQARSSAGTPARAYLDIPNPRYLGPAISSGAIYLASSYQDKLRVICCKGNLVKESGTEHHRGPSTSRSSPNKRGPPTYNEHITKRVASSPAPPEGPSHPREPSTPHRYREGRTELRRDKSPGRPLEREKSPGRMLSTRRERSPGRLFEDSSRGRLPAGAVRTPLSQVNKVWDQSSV
Chain of Ribosomal protein S6 kinase alpha-2 (Homo sapiens) (Q15349 whole entry): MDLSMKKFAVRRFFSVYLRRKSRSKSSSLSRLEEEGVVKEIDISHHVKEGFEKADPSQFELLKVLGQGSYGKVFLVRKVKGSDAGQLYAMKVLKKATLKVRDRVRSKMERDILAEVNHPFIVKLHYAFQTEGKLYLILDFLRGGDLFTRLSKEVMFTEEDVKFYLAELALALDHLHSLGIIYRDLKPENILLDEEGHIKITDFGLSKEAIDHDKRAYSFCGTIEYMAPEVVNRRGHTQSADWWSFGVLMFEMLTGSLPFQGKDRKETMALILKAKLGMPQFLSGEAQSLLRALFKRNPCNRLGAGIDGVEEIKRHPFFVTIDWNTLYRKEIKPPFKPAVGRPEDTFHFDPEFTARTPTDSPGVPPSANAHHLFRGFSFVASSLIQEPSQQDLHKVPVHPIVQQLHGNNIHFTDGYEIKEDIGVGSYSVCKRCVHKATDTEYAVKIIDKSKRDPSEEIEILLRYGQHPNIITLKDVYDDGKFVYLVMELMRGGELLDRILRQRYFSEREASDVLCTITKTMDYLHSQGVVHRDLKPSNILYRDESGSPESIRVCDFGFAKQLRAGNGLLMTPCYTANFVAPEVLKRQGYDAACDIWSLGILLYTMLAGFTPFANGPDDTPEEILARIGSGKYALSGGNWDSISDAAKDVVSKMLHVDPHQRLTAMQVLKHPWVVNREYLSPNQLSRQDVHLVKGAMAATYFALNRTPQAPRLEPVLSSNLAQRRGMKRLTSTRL
Chain of Serine/threonine-protein kinase 32A (Homo sapiens) (Q8WU08 whole entry): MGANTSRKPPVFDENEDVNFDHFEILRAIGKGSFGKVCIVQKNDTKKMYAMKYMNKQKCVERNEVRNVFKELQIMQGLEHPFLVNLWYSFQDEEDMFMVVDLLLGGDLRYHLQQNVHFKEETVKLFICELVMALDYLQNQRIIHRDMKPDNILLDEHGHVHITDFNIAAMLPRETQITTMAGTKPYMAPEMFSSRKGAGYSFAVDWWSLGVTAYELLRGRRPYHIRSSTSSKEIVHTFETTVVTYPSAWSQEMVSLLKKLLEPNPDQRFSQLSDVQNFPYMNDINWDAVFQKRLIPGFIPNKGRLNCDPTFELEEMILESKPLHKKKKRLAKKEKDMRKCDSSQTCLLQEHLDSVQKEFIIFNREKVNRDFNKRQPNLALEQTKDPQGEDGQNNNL
Chain of Receptor-interacting serine/threonine-protein kinase 2 (Homo sapiens) (O43353 whole entry): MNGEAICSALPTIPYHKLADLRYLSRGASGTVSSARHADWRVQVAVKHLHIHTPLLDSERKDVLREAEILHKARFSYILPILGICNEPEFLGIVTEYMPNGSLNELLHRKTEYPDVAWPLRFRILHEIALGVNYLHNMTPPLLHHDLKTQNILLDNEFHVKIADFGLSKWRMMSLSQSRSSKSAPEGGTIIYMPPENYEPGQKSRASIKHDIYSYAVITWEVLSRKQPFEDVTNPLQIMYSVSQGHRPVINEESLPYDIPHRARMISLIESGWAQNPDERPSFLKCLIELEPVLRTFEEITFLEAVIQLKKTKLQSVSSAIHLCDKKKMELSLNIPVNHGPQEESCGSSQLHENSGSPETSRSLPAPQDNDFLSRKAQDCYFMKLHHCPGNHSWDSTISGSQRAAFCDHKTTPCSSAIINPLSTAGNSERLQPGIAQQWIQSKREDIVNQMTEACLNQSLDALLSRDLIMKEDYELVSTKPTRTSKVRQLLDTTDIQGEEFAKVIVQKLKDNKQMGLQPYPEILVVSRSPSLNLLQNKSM
Chain of Serine/threonine-protein kinase PAK 4 (Homo sapiens) (O96013 whole entry, looked up): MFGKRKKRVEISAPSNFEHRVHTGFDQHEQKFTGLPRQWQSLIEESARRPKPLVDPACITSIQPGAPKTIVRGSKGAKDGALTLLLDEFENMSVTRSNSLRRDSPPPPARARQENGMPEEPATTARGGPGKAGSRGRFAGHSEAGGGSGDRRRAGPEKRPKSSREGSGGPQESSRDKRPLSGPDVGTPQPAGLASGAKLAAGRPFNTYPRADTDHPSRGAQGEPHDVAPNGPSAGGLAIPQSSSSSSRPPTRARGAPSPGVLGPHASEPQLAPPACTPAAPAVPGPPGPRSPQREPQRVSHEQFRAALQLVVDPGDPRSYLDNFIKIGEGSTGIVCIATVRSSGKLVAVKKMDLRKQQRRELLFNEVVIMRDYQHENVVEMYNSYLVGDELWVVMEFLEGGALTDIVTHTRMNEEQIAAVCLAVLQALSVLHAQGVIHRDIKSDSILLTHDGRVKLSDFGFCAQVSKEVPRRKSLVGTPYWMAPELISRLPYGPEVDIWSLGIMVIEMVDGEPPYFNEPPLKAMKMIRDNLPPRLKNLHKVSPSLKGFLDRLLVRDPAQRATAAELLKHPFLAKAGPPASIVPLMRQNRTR
Chain of Cyclin-dependent kinase 2 homolog (Plasmodium falciparum (isolate 3D7)) (P61075 whole entry): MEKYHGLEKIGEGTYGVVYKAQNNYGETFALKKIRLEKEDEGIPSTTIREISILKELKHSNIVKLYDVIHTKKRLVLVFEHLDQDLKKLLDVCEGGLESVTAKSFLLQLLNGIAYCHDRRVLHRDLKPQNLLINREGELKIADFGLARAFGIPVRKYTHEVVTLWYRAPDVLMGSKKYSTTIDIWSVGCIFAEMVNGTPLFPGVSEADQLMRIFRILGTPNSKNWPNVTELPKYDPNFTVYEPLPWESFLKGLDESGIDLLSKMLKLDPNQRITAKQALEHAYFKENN

CS(=O)(=O)c1cc(C2(NC(=O)c3cncc4c3cnn4-c3ccc(F)cc3)CC2)ccn1 [BI 639667]
inactive: [1] 100% | [2] 100% | [3] 100% | [4] 96% | [5] 100% | [6] 82% | [7] 100% | [8] 96% | [10] 83% | [11] 96% | [12] 81% | [13] 100% | [14] 100% | [15] 90% | [16] 96% | [17] 105% | [18] 100% | [19] 99% | [20] 95% | [21] 100% | [22] 100% | [23] 81% | [24] 100% | [25] 53% | [26] 91% | [27] 100% | [28] 88% | [29] 100% | [30] 82% | [31] 100% | [32] 71% | [33] 94% | [34] 81% | [35] 75% | [36] 100% | [37] 100% | [38] 100% | [39] 94% | [40] 95% | [41] 88% | [42] 100% | [43] 93%
active: [9] 31%

CS(=O)(=O)NCC[C@H](NC(=O)c1cncc2c1cnn2-c1ccc(F)cc1)c1ccnc(S(C)(=O)=O)c1 [BI 9307]
inactive: [1] 100% | [2] 79% | [3] 100% | [5] 100% | [7] 100% | [8] 100% | [10] 99% | [11] 96% | [12] 100% | [13] 100% | [14] 80% | [15] 91% | [44] 100% | [16] 100% | [18] 100% | [45] 100% | [20] 98% | [21] 96% | [22] 84% | [24] 79% | [25] 100% | [26] 100% | [27] 100% | [28] 100% | [29] 73% | [31] 100% | [32] 74% | [33] 100% | [34] 78% | [35] 100% | [36] 100% | [37] 100% | [38] 100% | [39] 100% | [42] 92% | [43] 100%
